SMILES strings stand for the structures. Structures can show the parent of a compound that is named as a salt.

Sequence of TNFα (P01375 77-233 limits assumed): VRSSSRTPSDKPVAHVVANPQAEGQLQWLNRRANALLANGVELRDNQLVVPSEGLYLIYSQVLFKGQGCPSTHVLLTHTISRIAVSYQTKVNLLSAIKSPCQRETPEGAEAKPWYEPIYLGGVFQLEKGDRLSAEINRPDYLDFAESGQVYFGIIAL

The assay addresses TNFα (Homo sapiens, UniProt P01375). Briefly: TNF induced HEK-Blue assay (NF-kB-driven secreted alkaline phosphatase reporter). It counts as cell-based. Particulars: TNFα 0.5 ng/mL, HEK-Blue-CD40L cells, 18 h; read-out: TNF induced HEK-Blue assay IC50 value. The method in brief: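 HEK-Blue-CD40L cells (NF-kB-driven SEAP reporter), 20,000/well, added after 30 min pre-incubation of compound (0.004–25 μM final) with TNFα 0.5 ng/mL final at 37 °C; 18 h incubation. SEAP read with QUANTI-Blue at 620 nm; IC50 from 4-parameter logistic fit, normalized to unstimulated and stimulated DMSO controls.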
What is called IC50 is the concentration that gives 50% inhibition. As for `Cc1nc2cc(F)c(-c3cnc(C(C)(C)O)nc3)cc2c(N[C@H](C)c2cccc(C(N)=O)c2)c1Cl` [Example 394, (R)-3-(1-((3-chloro-7-fluoro-6-(2-(2-hydroxypropan-2-yl)pyrimidin-5-yl)-2-methylquinolin-4-yl)amino)ethyl)benzamide], the IC50 is less than 1000 nM.
Turning to `C[C@@H](Nc1c(Cl)c(C(=O)Nc2cccnc2)nc2ccc(-c3cnc(C(C)(C)O)nc3)cc12)c1cc(C(N)=O)ccc1F` [Example 395, (R)-4-((1-(5-carbamoyl-2-fluorophenyl)ethyl)amino)-3-chloro-6-(2-(2-hydroxypropan-2-yl)pyrimidin-5-yl)-N-(pyridin-3-yl)quinoline-2-carboxamide], the IC50 lay within 1000 to 10000 nM.
Then `Cc1nc2ccc(-c3cnc(C(C)(C)O)nc3)cc2c(N[C@H](C)c2cc(Cc3ccccc3)ccc2F)c1Cl` [Example 396, (R)-2-(5-(4-((1-(5-benzyl-2-fluorophenyl)ethyl)amino)-3-chloro-2-methylquinolin-6-yl)pyrimidin-2-yl)propan-2-ol], with less than 1000 nM; and `Cc1nc2ccc(-c3cnc(C(C)(C)O)nc3)cc2c(N[C@H](C)c2cc(O)ccc2F)c1Cl` [Example 404, (R)-3-(1-((3-chloro-6-(2-(2-hydroxypropan-2-yl)pyrimidin-5-yl)-2-methylquinolin-4-yl)amino)ethyl)-4-fluorophenol], with less than 1000 nM.
For the compound `C[C@@H](Nc1c(Cl)cnc2ccc(-c3cnc(C(C)(C)O)nc3)cc12)c1cc(O)ccc1F` [Example 405, (R)-3-(1-((3-chloro-6-(2-(2-hydroxypropan-2-yl)pyrimidin-5-yl)quinolin-4-yl)amino)ethyl)-4-fluorophenol], the IC50 is less than 1000 nM.
On to `Cc1nc2ccc(-c3cnc(C(C)(C)O)nc3)cc2c(N[C@H](C)c2cc(Cl)ccc2F)c1Cl` [Example 406, (R)-2-(5-(3-chloro-4-((1-(5-chloro-2-fluorophenyl)ethyl)amino)-2-methylquinolin-6-yl)pyrimidin-2-yl)propan-2-ol], for which the IC50 is less than 1000 nM.
For `Cc1nc2ccc(-c3cnc(C(C)(C)O)nc3)cc2c(N[C@H](C)c2cc(C(=O)O)ccc2F)c1Cl` [Example 407, (R)-3-(1-((3-chloro-6-(2-(2-hydroxypropan-2-yl)pyrimidin-5-yl)-2-methylquinolin-4-yl)amino)ethyl)-4-fluorobenzoic acid] the value was 10000 to 25000 nM; for `Cc1nc2ccc(-c3cnc(C(C)(C)O)nc3)cc2c(N[C@H](C)c2cc(C(C)(C)O)ccc2F)c1Cl` [Example 408, (R)-2-(5-(3-chloro-4-((1-(2-fluoro-5-(2-hydroxypropan-2-yl)phenyl)ethyl)amino)-2-methylquinolin-6-yl)pyrimidin-2-yl)propan-2-ol, TFA Salt], less than 1000 nM.
For `CC(=O)c1ccc(F)c([C@@H](C)Nc2c(Cl)cnc3ccc(-c4cnc(C(C)(C)O)nc4)cc23)c1` [Example 409, (R)-1-(3-(1-((3-chloro-6-(2-(2-hydroxypropan-2-yl)pyrimidin-5-yl)quinolin-4-yl)amino)ethyl)-4-fluorophenyl)ethan-1-one] the value was less than 1000 nM.
Then `C[C@@H](Nc1c(Cl)cnc2ccc(-c3cnc(C(C)(C)O)nc3)cc12)c1cc(C(C)(C)O)ccc1F` [Example 410, (R)-2-(5-(3-chloro-4-((1-(2-fluoro-5-(2-hydroxypropan-2-yl)phenyl)ethyl)amino)quinolin-6-yl)pyrimidin-2-yl)propan-2-ol], with 1000 to 10000 nM.
For the compound `C[C@@H](Nc1c(Cl)cnc2ccc(-c3cnc(C(C)(C)O)nc3)cc12)c1cc(C#Cc2ccccc2)ccc1F` [Example 411, (R)-2-(5-(3-chloro-4-((1-(2-fluoro-5-(phenylethynyl)phenyl)ethyl)amino)quinolin-6-yl)pyrimidin-2-yl)propan-2-ol], the IC50 lay within 1000 to 10000 nM.
With `Cc1nc2ccc(-c3cnc(C(C)(C)O)nc3)cc2c(N[C@H](C)c2cc(-c3nnn[nH]3)ccc2F)c1Cl` [Example 412, (R)-2-(5-(3-chloro-4-((1-(2-fluoro-5-(1H-tetrazol-5-yl)phenyl)ethyl)amino)-2-methylquinolin-6-yl)pyrimidin-2-yl)propan-2-ol], the IC50 fell in the range of 10000 to 25000 nM.
Then `C[C@@H](Nc1c(Cl)cnc2ccc(-c3cnc(C(C)(C)O)nc3)cc12)c1cc(-c2nnn(C)n2)ccc1F` [Example 413, (R)-2-(5-(3-chloro-4-((1-(2-fluoro-5-(2-methyl-2H-tetrazol-5-yl)phenyl)ethyl)amino)quinolin-6-yl)pyrimidin-2-yl)propan-2-ol], with less than 1000 nM; and `C[C@@H](Nc1c(Cl)cnc2ccc(-c3cnc(C(C)(C)O)nc3)cc12)c1cc(-c2ncn[nH]2)ccc1F` [Example 414, (R)-2-(5-(3-chloro-4-((1-(2-fluoro-5-(1H-1,2,4-triazol-5-yl)phenyl)ethyl)amino)quinolin-6-yl)pyrimidin-2-yl)propan-2-ol], with less than 1000 nM; and `COC(=O)c1ccc(F)c([C@@H](C)Nc2c(Cl)cnc3ccc(-c4cnc(C(C)(C)O)nc4)cc23)c1` [Example 415, Methyl (R)-3-(1-((3-chloro-6-(2-(2-hydroxypropan-2-yl)pyrimidin-5-yl)quinolin-4-yl)amino)ethyl)-4-fluorobenzoate], with less than 1000 nM.
On to `CNC(=O)c1ccc(F)c([C@@H](C)Nc2c(Cl)cnc3ccc(-c4cnc(C(C)(C)O)nc4)cc23)c1` [Example 416, (R)-3-(1-((3-chloro-6-(2-(2-hydroxypropan-2-yl)pyrimidin-5-yl)quinolin-4-yl)amino)ethyl)-4-fluoro-N-methylbenzamide], for which the concentration for half-maximal inhibition (IC50) fell in the range of 1000 to 10000 nM.
With `C[C@@H](Nc1c(Cl)cnc2ccc(-c3cnc(C(C)(C)O)nc3)cc12)c1cc(C(=O)N(C)C)ccc1F` [Example 417, (R)-3-(1-((3-chloro-6-(2-(2-hydroxypropan-2-yl)pyrimidin-5-yl)quinolin-4-yl)amino)ethyl)-4-fluoro-N,N-dimethylbenzamide], the IC50 is less than 1000 nM.
For `Cc1nc2ccc(-c3cnc(C(C)(C)O)nc3)cc2c(N[C@@H](c2cc(C(C)(C)O)ccc2F)C(F)F)c1Cl` [Example 418, (S)-2-(5-(3-chloro-4-((2,2-difluoro-1-(2-fluoro-5-(2-hydroxypropan-2-yl)phenyl)ethyl)amino)-2-methylquinolin-6-yl)pyrimidin-2-yl)propan-2-ol] the value was less than 1000 nM; for `C[C@@H](Nc1c(Cl)cnc2ccc(-c3cnc(C(C)(C)O)nc3)cc12)c1cc(-c2c[nH]nn2)ccc1F` [Example 419, (R)-2-(5-(3-chloro-4-((1-(2-fluoro-5-(1H-1,2,3-triazol-4-yl)phenyl)ethyl)amino)quinolin-6-yl)pyrimidin-2-yl)propan-2-ol], less than 1000 nM; for `C[C@@H](Nc1c(Cl)cnc2ccc(-c3cnc(C(C)(C)O)nc3)cc12)c1cc(C=NO)ccc1F` [Example 424, (R)-3-(1-((3-chloro-6-(2-(2-hydroxypropan-2-yl)pyrimidin-5-yl)quinolin-4-yl)amino)ethyl)-4-fluorobenzaldehyde oxime], less than 1000 nM.
Regarding `C[C@@H](Nc1c(Cl)cnc2ccc(-c3cnc(C(C)(C)O)nc3)cc12)c1cc(S(C)(=O)=O)ccc1F` [Example 425, (R)-2-(5-(3-chloro-4-((1-(2-fluoro-5-(methylsulfonyl)phenyl)ethyl)amino)quinolin-6-yl)pyrimidin-2-yl)propan-2-ol], the IC50 is less than 1000 nM.
For `C[C@@H](Nc1c(Cl)cnc2ccc(-c3cnc(C(C)(C)O)nc3)cc12)c1cc(S(N)(=O)=O)ccc1F` [Example 426, (R)-3-(1-((3-chloro-6-(2-(2-hydroxypropan-2-yl)pyrimidin-5-yl)quinolin-4-yl)amino)ethyl)-4-fluorobenzenesulfonamide] the value was less than 1000 nM; for `COC(=O)CCS(=O)(=O)c1ccc(F)c([C@@H](C)Nc2c(Cl)cnc3ccc(-c4cnc(C(C)(C)O)nc4)cc23)c1` [Example 427, Methyl (R)-3-((3-(1-((3-chloro-6-(2-(2-hydroxypropan-2-yl)pyrimidin-5-yl)quinolin-4-yl)amino)ethyl)-4-fluorophenyl)sulfonyl)propanoate], 1000 to 10000 nM; for `C[C@@H](Nc1c(Cl)cnc2ccc(-c3cnc(C(C)(C)O)nc3)cc12)c1cc(-c2cc(C(=O)O)[nH]n2)ccc1F` [Example 428, (R)-3-(3-(1-((3-chloro-6-(2-(2-hydroxypropan-2-yl)pyrimidin-5-yl)quinolin-4-yl)amino)ethyl)-4-fluorophenyl)-1H-pyrazole-5-carboxylic acid], 10000 to 25000 nM.
For `C[C@@H](Nc1c(Cl)cnc2ccc(-c3cnc(C(C)(C)O)nc3)cc12)c1cc(CN)ccc1F` [Example 429, (R)-2-(5-(4-((1-(5-(aminomethyl)-2-fluorophenyl)ethyl)amino)-3-chloroquinolin-6-yl)pyrimidin-2-yl)propan-2-ol] the value was less than 1000 nM.
`C[C@@H](Nc1c(Cl)cnc2ccc(-c3cnc(C(C)(C)O)nc3)cc12)c1cc(CO)ccc1F` [Example 430, (R)-2-(5-(3-chloro-4-((1-(2-fluoro-5-(hydroxymethyl)phenyl)ethyl)amino)quinolin-6-yl)pyrimidin-2-yl)propan-2-ol]: the IC50 was less than 1000 nM.
`Cc1nc2ccc(-c3cnc(C(C)(C)O)nc3)cc2c(N[C@H](C)c2cc(CO)ccc2F)c1Cl` [Example 431, (R)-2-(5-(3-chloro-4-((1-(2-fluoro-5-(hydroxymethyl)phenyl)ethyl)amino)-2-methylquinolin-6-yl)pyrimidin-2-yl)propan-2-ol]: the IC50 was less than 1000 nM.
With `Cc1nc2ccc(C3C=NC(C(C)(C)O)=NC3)cc2c(N[C@H](C)c2cc(CO)ccc2F)c1Cl` (stereo partly drawn) [Example 432, (R)-2-(5-(3-chloro-4-((1-(2-fluoro-5-(hydroxymethyl)phenyl)ethyl)amino)-2-methylquinolin-6-yl)-4,5-dihydropyrimidin-2-yl)propan-2-ol], the IC50 was less than 1000 nM.

The values are drawn from patent publication US10865191B2, “Heterocyclic compounds useful as modulators of TNF alpha” (BRISTOL-MYERS SQUIBB COMPANY, priority 2015, dated 2020).
